{
  "source": "patent US20220347171A1",
  "about": "“TREATMENT OF PRURIGO NODULARIS” (TREVI THERAPEUTICS, INC., priority 2016, published 2022)",
  "key": {"[1]": {"system": "prurigo nodularis patients", "assay": "Example 2 trial: average itch intensity NRS score", "format": "in vivo, human", "conditions": "180 mg BID; end of treatment; 95% CI −2.764, −0.134; P=0.031", "method": "This clinical study was a double-blind, placebo-controlled trial in which prurigo nodularis patients were randomized in a 1:1:1 ratio to nalbuphine ER tablets to a target dose of 90 mg twice daily (BID), nalbuphine HCl ER tablets 180 mg BID, or placebo tablets BID. Use of nonsedating rescue antihistamine medications (non-first generation H1-antihistamines [Simons F E. Advances in H1-antihistamines. N Engl J Med. 2004; 351(21):2203-17.]) were allowed in the study but their use was recorded. Cleansing emollients were allowed for hygiene purposes provided there were no active substances (such as menthol or urea) contained in the lotion. A placebo comparator was chosen because there are no approved treatments for prurigo nodularis in the United States or Europe or an established standard of care that could serve as an active control.\n(1) The proportion of patients with at least a 30% reduction in the 7-day average daily diary-reported NRS itch intensity from baseline to the evaluation visit (Week 10). (2) The proportion of patients with at least a 50% reduction in the 7-day average daily diary-reported NRS itch intensity from baseline to the evaluation visit (Week 10). […] (5) Prurigo nodularis skin lesions, as quantitatively measured by the Prurigo Activity Score (PAS) recorded at baseline and during evaluation visit (Week 10). […]"}, "[2]": {"system": "prurigo nodularis patients", "assay": "TR03ext (Example 3), titrated 30 mg QD to 180 mg BID: itchy Verbal Rating Scale (VRS)", "format": "in vivo, human", "conditions": "for VRS Itch Visit Mean (SD): Baseline 2.7 (0.8)", "excerpt": "This clinical study was a Phase 2 Open Label Extension Study (clinical study TR03ext) of the randomized, double-blind, 3-parallel arm, placebo controlled dose ranging study described in Example 2. All those subjects who were randomized, and then completed Example 2 study, were eligible to participate in the Extension Study.\nThe primary endpoint was a description of the overall incidence and nature of Treatment-Emergent AEs (TEAES) during weeks 5-50 of the study. Exploratory efficacy endpoints included Change from Baseline patient reported outcome measures of Worst itch NRS, itchy VRS and ItchyQoL, by Treatment Period study visit and Baseline NRS score. There was also an assessment of any potential skin lesion changes over time using the metrics of the PAS.\nOf the 63 patients that were randomized to the study of Example 2, 36 subjects who enrolled into Extension Study entered the Treatment Period of the study and were exposed to nalbuphine HCl ER tablet administration and are the basis of the study safety population analysis.\nPatients in Extension Study were titrated over a dose range of 30 mg QD to 180 mg BID based on tolerability. The selected dose range was based on Example 2 study whereby patients were titrated from a 30 mg QD dose either to 30 mg BID, 60 mg BID, 90 mg BID, 120 mg BID or a 180 mg BID dose. The highest dose proposed was 180 mg BID (360 mg daily dose), and was well below the highest recommended daily treatment of 160 mg IV (equivalent to 960 mg oral) for the current marketed parenteral administered product.\nThe study duration for each patient was up to 52 weeks, with up to 50 weeks on study drug. The Extension Study consisted of a Treatment Period (that was followed by a Washout Safety Follow-up Period) and an Observation Period. Patients either entered directly into a drug Treatment Period (NRS >5) or a no-drug Observation Period (NRS ≤5) based on their reported NRS scores on the first Visit (Visit 1a). For up to 12 Extended Screening weeks, patients in the no-drug Observation Period could have also transitioned into the drug Treatment Period if their NRS increased to NRS >5. All patients entering the Treatment Period, whether immediately upon study entry or following a period of time in the Observation Period, were titrated to a dose ranging between 30 mg up to 180 mg BID, the highest dose tested in Example 2."}, "[3]": {"conditions": "Patients With At Least 6 Months of Treatment N = 18"}, "[4]": {"conditions": "Patients With At Least 9 Months of Treatment N = 15"}},
  "note": "Counter-ions that a name gives are not always drawn.",
  "data": [
    {"smiles": "Oc1ccc2c3c1OC1[C@@H](O)CC[C@@]4(O)[C@@H](C2)N(CC2CCC2)CC[C@]314", "note": "(stereo partly drawn) [Nalbuphine, 17-(cyclobutylmethyl)-4,5α-epoxymorphinian-3, 6α, 14-triol, hydrochloride]", "values": [
      {"measurement": "LS mean treatment difference in change from baseline average itch intensity NRS score versus placebo", "setting": "[1]", "value": "−1.45"},
      {"measurement": "VRS Itch Improvement Category 1 Grade Better, baseline to last observed value, patients (%)", "setting": "[2]; All Patients N = 36", "value": "16 (44.4%)"},
      {"measurement": "VRS Itch Improvement Category 1 Grade Worse, baseline to last observed value, patients (%)", "setting": "[2]; All Patients N = 36", "value": 0},
      {"measurement": "VRS Itch Improvement Category 2-4 Grades Worse, baseline to last observed value, patients (%)", "setting": "[2]; All Patients N = 36", "value": 0},
      {"measurement": "VRS Itch Improvement Category 2 Grades Better, baseline to last observed value, patients (%)", "setting": "[2]; All Patients N = 36", "value": "9 (25.0%)"},
      {"measurement": "VRS Itch Improvement Category 3 Grades Better, baseline to last observed value, patients (%)", "setting": "[2]; All Patients N = 36", "value": "1 (2.8%)"},
      {"measurement": "VRS Itch Improvement Category 4 Grades Better, baseline to last observed value, patients (%)", "setting": "[2]; All Patients N = 36", "value": 0},
      {"measurement": "VRS Itch Improvement Category No Change, baseline to last observed value, patients (%)", "setting": "[2]; All Patients N = 36", "value": "3 (8.3%)"},
      {"measurement": "VRS Itch Improvement Category 1 Grade Better, baseline to last observed value, patients (%)", "setting": "[2]; Completers N = 14", "value": "5 (35.7%)"},
      {"measurement": "VRS Itch Improvement Category 1 Grade Worse, baseline to last observed value, patients (%)", "setting": "[2]; Completers N = 14", "value": 0},
      {"measurement": "VRS Itch Improvement Category 2-4 Grades Worse, baseline to last observed value, patients (%)", "setting": "[2]; Completers N = 14", "value": 0},
      {"measurement": "VRS Itch Improvement Category 2 Grades Better, baseline to last observed value, patients (%)", "setting": "[2]; Completers N = 14", "value": "7 (50.0%)"},
      {"measurement": "VRS Itch Improvement Category 3 Grades Better, baseline to last observed value, patients (%)", "setting": "[2]; Completers N = 14", "value": 0},
      {"measurement": "VRS Itch Improvement Category 4 Grades Better, baseline to last observed value, patients (%)", "setting": "[2]; Completers N = 14", "value": 0},
      {"measurement": "VRS Itch Improvement Category No Change, baseline to last observed value, patients (%)", "setting": "[2]; Completers N = 14", "value": "2 (14.3%)"},
      {"measurement": "VRS Itch Improvement Category 1 Grade Better, baseline to last observed value, patients (%)", "setting": "[2]; [3]", "value": "6 (33.3%)"},
      {"measurement": "VRS Itch Improvement Category 1 Grade Worse, baseline to last observed value, patients (%)", "setting": "[2]; [3]", "value": 0},
      {"measurement": "VRS Itch Improvement Category 2-4 Grades Worse, baseline to last observed value, patients (%)", "setting": "[2]; [3]", "value": 0},
      {"measurement": "VRS Itch Improvement Category 2 Grades Better, baseline to last observed value, patients (%)", "setting": "[2]; [3]", "value": "9 (50.0%)"},
      {"measurement": "VRS Itch Improvement Category 3 Grades Better, baseline to last observed value, patients (%)", "setting": "[2]; [3]", "value": "1 (5.6%)"},
      {"measurement": "VRS Itch Improvement Category 4 Grades Better, baseline to last observed value, patients (%)", "setting": "[2]; [3]", "value": 0},
      {"measurement": "VRS Itch Improvement Category No Change, baseline to last observed value, patients (%)", "setting": "[2]; [3]", "value": "2 (11.1%)"},
      {"measurement": "VRS Itch Improvement Category 1 Grade Better, baseline to last observed value, patients (%)", "setting": "[2]; [4]", "value": "6 (40.0%)"},
      {"measurement": "VRS Itch Improvement Category 1 Grade Worse, baseline to last observed value, patients (%)", "setting": "[2]; [4]", "value": 0},
      {"measurement": "VRS Itch Improvement Category 2-4 Grades Worse, baseline to last observed value, patients (%)", "setting": "[2]; [4]", "value": 0},
      {"measurement": "VRS Itch Improvement Category 2 Grades Better, baseline to last observed value, patients (%)", "setting": "[2]; [4]", "value": "7 (46.7%)"},
      {"measurement": "VRS Itch Improvement Category 3 Grades Better, baseline to last observed value, patients (%)", "setting": "[2]; [4]", "value": 0},
      {"measurement": "VRS Itch Improvement Category 4 Grades Better, baseline to last observed value, patients (%)", "setting": "[2]; [4]", "value": 0},
      {"measurement": "VRS Itch Improvement Category No Change, baseline to last observed value, patients (%)", "setting": "[2]; [4]", "value": "2 (13.3%)"},
      {"measurement": "VRS Itch Mean (SD) Change from Baseline", "setting": "[2]; Study Week 3, N=34", "value": "−0.6 (0.9)"},
      {"measurement": "VRS Itch Visit Mean (SD)", "setting": "[2]; Study Week 3, N=34", "value": "2.1 (1.1)"},
      {"measurement": "VRS Itch Mean (SD) Change from Baseline", "setting": "[2]; Study Week 5, N=33", "value": "−0.9 (1.0)"},
      {"measurement": "VRS Itch Visit Mean (SD)", "setting": "[2]; Study Week 5, N=33", "value": "1.8 (1.0)"},
      {"measurement": "VRS Itch Mean (SD) Change from Baseline", "setting": "[2]; Study Week 9, N=30", "value": "−0.9 (0.8)"},
      {"measurement": "VRS Itch Visit Mean (SD)", "setting": "[2]; Study Week 9, N=30", "value": "1.7 (0.9)"},
      {"measurement": "VRS Itch Mean (SD) Change from Baseline", "setting": "[2]; Study Week 13, N=25", "value": "−1.1 (0.8)"},
      {"measurement": "VRS Itch Visit Mean (SD)", "setting": "[2]; Study Week 13, N=25", "value": "1.5 (0.8)"},
      {"measurement": "VRS Itch Mean (SD) Change from Baseline", "setting": "[2]; Study Week 17, N=25", "value": "−1.2 (1.2)"},
      {"measurement": "VRS Itch Visit Mean (SD)", "setting": "[2]; Study Week 17, N=25", "value": "1.4 (1.0)"},
      {"measurement": "VRS Itch Mean (SD) Change from Baseline", "setting": "[2]; Study Week 21, N=22", "value": "−1.2 (0.8)"},
      {"measurement": "VRS Itch Visit Mean (SD)", "setting": "[2]; Study Week 21, N=22", "value": "1.4 (0.7)"},
      {"measurement": "VRS Itch Mean (SD) Change from Baseline", "setting": "[2]; Study Week 26, N=21", "value": "−1.2 (0.9)"},
      {"measurement": "VRS Itch Visit Mean (SD)", "setting": "[2]; Study Week 26, N=21", "value": "1.4 (0.9)"},
      {"measurement": "VRS Itch Mean (SD) Change from Baseline", "setting": "[2]; Study Week 30, N=20", "value": "−1.5 (0.8)"},
      {"measurement": "VRS Itch Visit Mean (SD)", "setting": "[2]; Study Week 30, N=20", "value": "1.1 (0.8)"},
      {"measurement": "VRS Itch Mean (SD) Change from Baseline", "setting": "[2]; Study Week 34, N=18", "value": "−1.2 (0.8)"},
      {"measurement": "VRS Itch Visit Mean (SD)", "setting": "[2]; Study Week 34, N=18", "value": "1.4 (0.6)"},
      {"measurement": "VRS Itch Mean (SD) Change from Baseline", "setting": "[2]; Study Week 38, N=17", "value": "−1.2 (0.7)"},
      {"measurement": "VRS Itch Visit Mean (SD)", "setting": "[2]; Study Week 38, N=17", "value": "1.4 (0.6)"},
      {"measurement": "VRS Itch Mean (SD) Change from Baseline", "setting": "[2]; Study Week 42, N=17", "value": "−1.4 (0.6)"},
      {"measurement": "VRS Itch Visit Mean (SD)", "setting": "[2]; Study Week 42, N=17", "value": "1.2 (0.6)"},
      {"measurement": "VRS Itch Mean (SD) Change from Baseline", "setting": "[2]; Study Week 46, N=17", "value": "−1.4 (0.6)"},
      {"measurement": "VRS Itch Visit Mean (SD)", "setting": "[2]; Study Week 46, N=17", "value": "1.2 (0.7)"},
      {"measurement": "VRS Itch Mean (SD) Change from Baseline", "setting": "[2]; Study Week 50, N=15", "value": "−1.5 (0.7)"},
      {"measurement": "VRS Itch Visit Mean (SD)", "setting": "[2]; Study Week 50, N=15", "value": "1.1 (0.6)"}
    ]}
  ]
}
